From patent US20120004214A1 (priority 2009, published 2012)

Molecular target: α7-subtype of nicotinic receptors (Rattus norvegicus, UniProt Q05941)
Experiment: biochemical
Assay type: binding

α7-subtype of nicotinic receptors, sequence (Q05941 23-502): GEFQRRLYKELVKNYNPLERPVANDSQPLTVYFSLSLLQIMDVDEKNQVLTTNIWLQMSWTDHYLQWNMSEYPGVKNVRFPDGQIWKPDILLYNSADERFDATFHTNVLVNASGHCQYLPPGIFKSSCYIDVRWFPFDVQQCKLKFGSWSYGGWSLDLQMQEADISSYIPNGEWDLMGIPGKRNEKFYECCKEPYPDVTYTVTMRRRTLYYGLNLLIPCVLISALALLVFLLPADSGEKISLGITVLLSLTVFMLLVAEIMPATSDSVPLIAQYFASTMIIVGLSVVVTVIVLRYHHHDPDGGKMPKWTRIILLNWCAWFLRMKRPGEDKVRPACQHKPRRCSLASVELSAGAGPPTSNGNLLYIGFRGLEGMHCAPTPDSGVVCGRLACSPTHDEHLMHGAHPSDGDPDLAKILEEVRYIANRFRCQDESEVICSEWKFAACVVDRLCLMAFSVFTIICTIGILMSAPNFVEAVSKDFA

[O-][N+]12CCC(CC1)N(c1ncc(-c3ccc4[nH]ccc4c3)cn1)CC2 [Compound 1, 4-[5-(1H-Indol-5-yl)-pyrimidin-2-yl]-1,4-diaza-bicyclo[3.2.2]nonane 1-oxide]
IC50: < 40 nM
